Assay results from patent publication US6114335A, “Benzoylguanidine derivatives, process for their preparation their use in the preparation of medicines” (Boehringer Ingelheim KG, priority 1996, dated 2000).

Biological target: T1, Na^+ /H^+ Exchanger (Homo sapiens, UniProt P19634)
T1 construct: Human Intestinal Cancer Cells (HT-29); endogenous in cells; host or cells: HT-29
Experiment: Inhibition of the Na^+ /H^+ Exchanger in Human Intestinal Cancer Cells (HT-29)
Format: cell-based
Conditions: HT-29 cells; BCECF fluorescence, cytoplasmic pH; 4 minutes at 37° C., pH 7.0
Procedure: Inhibition of the Na^+ /H^+ Exchanger in Human Intestinal Cancer Cells (HT-29):
HT-29 cells were incubated in growth medium at 37° C., 5% CO2. After 3-5 days the growth medium was removed, the cells were washed and charged with 7.5 μM BCECF-AM (pH-sensitive fluorescent dye) at 37° C. without any CO2. After 30 minutes the cells were washed and acidified with the following medium: 70 mM choline chloride, 20 mM NH4 Cl, […], 1.8 mM CaC2, 5 mM glucose and 15 mM HEPES, pH 7.5.
After 6 minutes incubation at 37° C. without CO2, the cells were washed and incubated for 5 minutes with washing medium: 120 mM choline chloride, 5 mM KCl, 1 mM MgCl2, 1.8 mM CaCl2, 5 mM glucose and 15 mM MOPS, pH 7.0. The washing medium was removed and control medium was added with or without the test compound: 120 mM NaCl, 5 mM KCl, 1 mM MgCl2, 1.8 mM CaCl2, 5 mM glucose, 15 mM MOPS, pH 7.0.
The cells were incubated for 4 minutes at 37° C. without CO2 and measured by fluorimetry (CytoFluor 2350). The fluorescence of the dye BCECF was measured at the excitation wavelengths of 485 nm (pH sensitive) and 440 nm (non pH-sensitive) and at the emission wavelength of 530 nm. The cytoplasmic pH was calculated from the ratio of fluorescences at 485 and 440 nm. The fluorescence ratio was calibrated by measuring the fluorescence signal after equilibration of external and internal pH with nigericin.

T1 sequence (P19634 whole entry): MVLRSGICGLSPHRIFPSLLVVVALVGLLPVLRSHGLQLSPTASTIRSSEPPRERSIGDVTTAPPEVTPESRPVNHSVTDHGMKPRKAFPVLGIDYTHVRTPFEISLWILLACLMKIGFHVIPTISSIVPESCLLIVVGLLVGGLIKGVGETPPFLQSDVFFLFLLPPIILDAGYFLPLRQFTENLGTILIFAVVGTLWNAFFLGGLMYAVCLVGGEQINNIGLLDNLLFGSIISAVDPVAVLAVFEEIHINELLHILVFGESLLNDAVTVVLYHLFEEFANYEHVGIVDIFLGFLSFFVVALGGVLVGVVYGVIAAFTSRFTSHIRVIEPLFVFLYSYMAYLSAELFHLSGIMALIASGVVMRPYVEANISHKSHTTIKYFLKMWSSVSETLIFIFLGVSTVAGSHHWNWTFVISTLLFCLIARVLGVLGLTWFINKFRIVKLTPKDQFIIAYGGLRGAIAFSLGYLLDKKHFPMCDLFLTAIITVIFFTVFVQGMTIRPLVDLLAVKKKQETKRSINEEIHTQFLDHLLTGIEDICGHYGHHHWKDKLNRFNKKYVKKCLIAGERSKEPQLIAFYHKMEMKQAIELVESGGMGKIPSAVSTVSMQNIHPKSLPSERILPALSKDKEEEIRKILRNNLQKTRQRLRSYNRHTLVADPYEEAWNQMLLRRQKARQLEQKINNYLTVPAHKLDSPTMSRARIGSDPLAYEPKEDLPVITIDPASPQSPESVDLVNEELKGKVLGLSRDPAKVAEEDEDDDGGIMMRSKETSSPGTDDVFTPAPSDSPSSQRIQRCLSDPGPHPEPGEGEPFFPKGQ

Question: With `CS(=O)(=O)c1cc(C(=O)N=C(N)N)ccc1N1CCN(C(=O)c2ccco2)CC1` [Example 3] as the molecule, how does the IC50 read?
Answer: 29 nM

Question: How did the IC50 turn out when `CS(=O)(=O)c1cc(C(=O)N=C(N)N)ccc1N1CCN(C(=O)c2cccs2)CC1` [Example 4] was run?
Answer: 31 nM

Question: Which IC50 does the source give for `CN(C)CCN1CCN(c2ccc(C(=O)N=C(N)N)cc2S(C)(=O)=O)CC1` [Example 1] here?
Answer: 500 nM
